Results published in patent US20070161547A1, “Modulation of survivin expression” (priority 2003, published 2007).
Oligonucleotides are written 5' to 3', each unit as a sugar letter and its base; * is a phosphorothioate linkage, no mark a phosphodiester; rarer units and linkages stand in square brackets, end groups in braces. Plain capitals give the bases only. e = 2'-O-(2-methoxyethyl) (MOE); m = 2'-O-methyl; r = 2'-OH (RNA); {P} = phosphate

system: human survivin mRNA; experiment: IC50 of dsRNA for survivin mRNA, dose response by quantitative RT-PCR ("D"); assay type: cell-based; settings: D (dose response, mRNA levels), HeLa cells; read-out: IC50
Procedure: Representative parameters that can be studied include, for example, translation of survivin mRNAs or survivin protein synthesis; effect on surrogate markers; or any other parameter that is indicative of potential dsRNA therapeutic effectiveness that can be conveniently measured in vitro.
For western blot analysis, cells are plated in 10 cm tissue culture dishes (Falcon, #3003) at a density of 7.5×10^5 cells/dish. For RT-PCR analysis, 96-well plates (Corning Incorporated, #3596) are plated with 1×10^4 cells/well. Lipofectin (GIBCO/Invitrogen) transfection reagent is used at a concentration of 3 ul/ml OPTIMEM reduced serum medium (Gibco/Invitrogen)/100 nM siRNA duplex. Lipofectin reagent is incubated with OPTIMEM medium for 30 minutes prior to the addition of siRNA. The desired amount of siRNA is added and mixed. Further 1:1 dilutions are performed in OPTIMEM. Cells are washed twice with 1× phosphate buffered saline and then treated with the siRNA/Lipofectin mixture in OPTIMEM. After a 4 hr incubation period, OPTIMEM medium is replaced with complete growth medium. Cells are harvested after additional 16-20 hrs for Western blot or RT-PCR analysis.
Total RNA is isolated using RNeasy® 96 kit according to recommended protocol (Qiagen). Briefly, cells are washed with 200 ul PBS after removal of growth medium. Following washing, 100 μl buffer RLT is added, plate is shaken vigorously for about 20 seconds. To each well 100 μl 70% ethanol are added and mixed by pipetting up and down three times. Samples are then applied into the wells of the RNeasy 96 plate placed in the QIAvac top base of the QIAvac 96 manifold, which is attached to a vacuum source. Vacuum is applied for 30 seconds or until transfer is complete. To each well 80 μl of DNase I incubation mix (20 mM Tris-HCl, pH 8.4, 2 mM MgCl2, 50 mM KCl and 225 Units/ml DNase I from Invitrogen) is added and incubated at room temperature for 30 minutes. Buffer RW1 (1 ml/well) is added and the vacuum is applied for 30 seconds. Buffer RPE (1 ml/well) is added to each well and vacuum is applied for 30 seconds. Washing steps with buffer RW1 and RPE1 are repeated once more. The plate is then removed from the manifold and blotted dry on paper towels. The plate is placed back in the QIAvac manifold and the vacuum is applied for 10 minutes. To elute RNA 30 μl of RNase-free water is added directly onto the membrane of each well, incubated for 1 minutes and vacuum is applied for 30 seconds. In order to maximize the recovery of total RNA the elution step is repeated with additional 30 μl/well RNase-free water.
Quantitation of survivin and GAPDH mRNA levels is determined by real-time quantitative RT-PCR using the ABI PRISM® 7900 Sequence Detection System (Applied Biosystems). RT-PCR reactions are carried out by adding 15 ul of TaqMan One Step PCR Master Mix (Applied Biosystems, #4309169) reagents (containing 100 nM each of forward primer and reverse primer, and 200 nM probe) to 96-well plates with 10 μl total RNA. For human survivin, the forward PCR primer is: 5′[…]3′ (SEQ ID NO: 186), and the reverse primer is: 5′[…]3′ (SEQ ID NO: 187). The survivin TaqMan® probe used is 5′(FAM)[…]3′ (SEQ ID NO: 188) (Biosearch Technologies, Inc.). This primer-probe set, designed to SEQ ID No 14 was used for all experiments in Examples 15 to the end. For human GAPDH, TaqMan GAPDH Control Reagent Kit is used (Applied Biosystems, #402869). The percentage inhibition for each samples are calculated by comparing the survivin/GAPDH mRNA ratio for the sample to survivin/GAPDH mRNA ratio for the untreated control. The IC50 is derived from the non-linear regression analysis of the percentage inhibition data using GraphPad Prism software (GraphPad Software).
The constructs tested comprise the antisense strand in the 5′-3′ orientation, and the sense strand in the 5′ to 3′ orientation, In Table 15, “D” is dose response (mRNA levels) and “W” is Western blot. […]

Row | Substance | IC50 [nM]
1 | 339048_346294 (antisense AUUUGAAAAUGUUGAUCUCC; sense rA*rGrG*rArG*rArU*rCrA*rArC*rArU*rUrU*rUrC*rArA*rA; siRNA; antisense: unmodified RNA) | 0.24

same assay, conditions: Table 16; cell line not given; read-out: IC50 (nM) mRNA, dsRNA to human survivin

Row | Substance | IC50 [nM]
2 | ISIS 352507_352511: blunt-ended siRNA duplex: antisense 352507, sense 352511 (antisense mUrUmUrGmArAmArAmUrGmUrUmGrAmUrCmUrCmC; sense GGAGAUCAACAUUUUCAAA; sense: all phosphodiester, sugars by position and methylation of C not given here; further chemistry not fully specified) | 0.24
3 | ISIS 346284_346287: blunt-ended siRNA 19 PO-PS/PS: antisense 346284, sense 346287 (antisense rUrU*rUrG*rArA*rArA*rUrG*rUrU*rGrA*rUrC*rUrC*rC; sense rG*rG*rA*rG*rA*rU*rC*rA*rA*rC*rA*rU*rU*rU*rU*rC*rA*rA*rA) | 3.24
4 | ISIS 352506_352514: blunt-ended siRNA duplex: antisense 352506, sense 352514 (antisense mUrUrUrGrAmAmArArUmGrUrUrGrArUrCmUmCmC; sense GGAGAUCAACAUUUUCAAA; sense: sugars from the 5' end rererererererererer, all phosphodiester, methylation of C and T or U not given here) | 0.12
5 | ISIS 352507_352514: blunt-ended siRNA duplex: antisense 352507, sense 352514 (antisense mUrUmUrGmArAmArAmUrGmUrUmGrAmUrCmUrCmC; sense GGAGAUCAACAUUUUCAAA; sense: sugars from the 5' end rererererererererer, all phosphodiester, methylation of C and T or U not given here) | 0.21
6 | ISIS 352507_352512: blunt-ended siRNA duplex: antisense 352507, sense 352512 (antisense mUrUmUrGmArAmArAmUrGmUrUmGrAmUrCmUrCmC; sense mGmGmAmGmAmUmCmAmAmCmAmUmUmUmUmCmAmAmA) | 0.04
7 | ISIS 353539_343868: dsRNA duplex: antisense 353539, sense 343868 (antisense UUUGAAAAUGUUGAUCUCC; sense GGAGAUCAACAUUUUCAAA; chemical modifications, chemistry not fully specified) | 0.13
8 | ISIS 353540_343868: dsRNA duplex: antisense 353540, sense 343868 (antisense UUUGAAAAUGUUGAUCUCC; sense GGAGAUCAACAUUUUCAAA; chemical modifications, chemistry not fully specified) | 0.11
9 | ISIS 355710_343868: dsRNA duplex: antisense 355710, sense 343868 (antisense UUUGAAAAUGUUGAUCUCC; sense GGAGAUCAACAUUUUCAAA; chemical modifications, chemistry not fully specified) | 0.1
10 | ISIS 352507_346287: dsRNA duplex: antisense 352507, sense 346287 (antisense mUrUmUrGmArAmArAmUrGmUrUmGrAmUrCmUrCmC; sense rG*rG*rA*rG*rA*rU*rC*rA*rA*rC*rA*rU*rU*rU*rU*rC*rA*rA*rA) | 0.8
11 | ISIS 353538_343868: dsRNA duplex: antisense 353538 (4'-thio), sense 343868 (unmodified) (antisense UUUGAAAAUGUUGAUCUCC; sense GGAGAUCAACAUUUUCAAA; antisense: all phosphodiester, sugars by position and methylation of C not given here; sense: RNA, phosphodiester; antisense has 4'-thioribose at some positions, positions stated inconsistently, further chemistry not fully specified) | 0.16

system: human survivin mRNA; experiment: Inhibition of human survivin mRNA by single-stranded asRNA in HUVEC, real-time quantitative PCR; assay type: cell-based; parameters: concentration or dose not given beside the values; settings: Table 7
Procedure: HUVEC were obtained from ATCC and routinely cultured in EBM (Clonetics Corp, Walkersille, Md.) supplemented with SingleQuots supplements. Cells were routinely passaged by trypsinizaiton and dilution when they reached 90% confluence were maintained for up to 15 passages. For cells grown in 96-well plates (10,000 cells/well), wells were washed once with 200 μL OPTI-MEM-1™ reduced-serum medium (Gibco BRL) and then treated with 130 μL of OPTI-MEM-1™ containing 12 μg/mL LIPOFECTIN™ (Gibco BRL) and the desired double-stranded compounds at a final concentration of 25 nM. After 5 hours of treatment, the medium was replaced with fresh medium. Cells were harvested 16 hours after dsRNA treatment, at which time RNA was isolated and target reduction measured by RT-PCR.
A series of single-stranded olgometric compounds (asRNA) was evaluated for their ability to inhibit human survivin in human umbilical vein endothelial cells (HUVEC). Culture methods used for HUVEC are found, for example, at www.atcc.org.
Data were obtained by real-time quantitative PCR as described in other examples herein.

Row | Substance | % INHIB, inhibition of human survivin mRNA levels by asRNA oligomeric compounds [%]
12 | 347437 (antisense {P}-rG*rC*rU*rA*rU*rU*rC*rU*rG*rU*rG*rA*rA*rU*rU*rA*rA*rC*rA*rA) [compound 347437] | 54
13 | 347428 (antisense {P}-rA*rG*rA*rA*rG*rC*rA*rC*rC*rU*rC*rU*rG*rG*rU*rG*rC*rC*rA*rC) [compound 347428] | 60
14 | 347423 (antisense {P}-rA*rU*rC*rC*rA*rU*rG*rG*rC*rA*rG*rC*rC*rA*rG*rC*rU*rG*rC*rU) [compound 347423] | 55
15 | 347450 (antisense {P}-rA*rU*rC*rC*rA*rC*rC*rC*rU*rG*rC*rA*rG*rC*rU*rC*rU*rA*rU*rG) [compound 347450] | 55
16 | 347434 (antisense {P}-rU*rA*rA*rG*rG*rA*rA*rC*rC*rU*rG*rC*rA*rG*rC*rU*rC*rA*rG*rA) [compound 347434] | 70
17 | 347442 (antisense {P}-rU*rA*rA*rU*rC*rA*rC*rA*rC*rA*rG*rC*rA*rG*rU*rG*rG*rC*rA*rA) [compound 347442] | 66
18 | 347440 (antisense {P}-rU*rC*rC*rA*rC*rC*rU*rG*rA*rA*rG*rU*rU*rC*rA*rC*rC*rC*rC*rG) [compound 347440] | 57

system: human survivin mRNA; experiment: Inhibition of human survivin mRNA expression in HeLa cells, real-time quantitative PCR; assay type: cell-based; settings: Table 11; 0.2 nM; 16 h; averages from two experiments
Outline: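 HeLa cells in DMEM with 10% FBS treated with antisense oligonucleotides; survivin mRNA quantified by one-step real-time RT-PCR (RT 30 min at 48 °C, 40 two-step cycles) with a FAM/TAMRA probe, GAPDH measured alongside. Percent inhibition read from a standard curve of untreated-control mRNA dilutions.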

Row | Substance | Percentage of Inhibition of survivin expression in HeLa cells [%]
19 | 339048_346294 (antisense AUUUGAAAAUGUUGAUCUCC; sense rA*rGrG*rArG*rArU*rCrA*rArC*rArU*rUrU*rUrC*rArA*rA; siRNA; antisense: unmodified RNA) | 39

same assay, conditions: Table 11; 2.0 nM; 16 h; averages from two experiments

Row | Substance | Percentage of Inhibition of survivin expression in HeLa cells [%]
20 | 339048_346294 (antisense AUUUGAAAAUGUUGAUCUCC; sense rA*rGrG*rArG*rArU*rCrA*rArC*rArU*rUrU*rUrC*rArA*rA; siRNA; antisense: unmodified RNA) | 65

same assay, conditions: Table 11; 20.0 nM; 16 h; averages from two experiments

Row | Substance | Percentage of Inhibition of survivin expression in HeLa cells [%]
21 | 339048_346294 (antisense AUUUGAAAAUGUUGAUCUCC; sense rA*rGrG*rArG*rArU*rCrA*rArC*rArU*rUrU*rUrC*rArA*rA; siRNA; antisense: unmodified RNA) | 85
